In ChEMBL document CHEMBL4229471, “Antiprotozoal and cysteine proteases inhibitory activity of dipeptidyl enoates” (Bioorg Med Chem, 2018):
Active and inactive are the calls of the source. No cut-off for these calls is given here.

Legend:
[1] = target: Rhodesain (Trypanosoma brucei rhodesiense, UniProt Q95PM0); assay: Inhibition of Trypanosoma brucei rhodesiense rhodesain using Cbz-Phe-Arg-AMC as substrate measured for 30 mins by fluorescence method
[2] = target: T1, Procathepsin L (Homo sapiens, UniProt P07711); assay: Inhibition of human cathepsin L assessed as second order rate constant using Cbz-Phe-Arg-AMC as substrate
Target sequence in this assay (P07711 114-333 limits assumed): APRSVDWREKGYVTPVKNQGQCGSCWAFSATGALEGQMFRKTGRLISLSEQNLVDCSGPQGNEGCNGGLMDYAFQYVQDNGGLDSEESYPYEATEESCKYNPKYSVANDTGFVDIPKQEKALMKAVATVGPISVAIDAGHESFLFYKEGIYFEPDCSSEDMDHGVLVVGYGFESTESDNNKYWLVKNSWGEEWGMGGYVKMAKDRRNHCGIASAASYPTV

[3] = target: T2, Falcipain 2 (Plasmodium falciparum) (UniProt Q9N6S8); assay: Inhibition of Plasmodium falciparum falcipain-2 at 20 uM using Cbz-Phe-Arg-AMC as substrate measured for 15 mins by spectrofluorimetric method relative to control
T2 sequence (whole entry): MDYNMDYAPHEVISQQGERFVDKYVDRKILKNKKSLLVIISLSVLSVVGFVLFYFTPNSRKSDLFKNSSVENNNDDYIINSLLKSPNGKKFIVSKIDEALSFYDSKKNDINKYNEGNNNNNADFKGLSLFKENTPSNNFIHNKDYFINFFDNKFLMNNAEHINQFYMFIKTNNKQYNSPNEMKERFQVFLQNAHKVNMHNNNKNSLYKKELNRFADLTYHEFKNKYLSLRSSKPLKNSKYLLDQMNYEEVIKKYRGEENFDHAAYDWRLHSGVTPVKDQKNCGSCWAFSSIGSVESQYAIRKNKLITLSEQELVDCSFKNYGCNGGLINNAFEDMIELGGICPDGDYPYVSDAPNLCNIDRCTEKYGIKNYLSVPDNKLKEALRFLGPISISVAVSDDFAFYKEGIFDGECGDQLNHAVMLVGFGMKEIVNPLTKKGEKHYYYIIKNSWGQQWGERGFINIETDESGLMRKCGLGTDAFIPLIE

[4] = target: Rhodesain (Trypanosoma brucei rhodesiense) (UniProt Q95PM0); assay: Inhibition of Trypanosoma brucei rhodesiense rhodesain assessed as second-order rate constant using Cbz-Phe-Arg-AMC as substrate measured for 30 mins by fluorescence method
Sequence of Rhodesain (Trypanosoma brucei rhodesiense) (Q95PM0 1-450): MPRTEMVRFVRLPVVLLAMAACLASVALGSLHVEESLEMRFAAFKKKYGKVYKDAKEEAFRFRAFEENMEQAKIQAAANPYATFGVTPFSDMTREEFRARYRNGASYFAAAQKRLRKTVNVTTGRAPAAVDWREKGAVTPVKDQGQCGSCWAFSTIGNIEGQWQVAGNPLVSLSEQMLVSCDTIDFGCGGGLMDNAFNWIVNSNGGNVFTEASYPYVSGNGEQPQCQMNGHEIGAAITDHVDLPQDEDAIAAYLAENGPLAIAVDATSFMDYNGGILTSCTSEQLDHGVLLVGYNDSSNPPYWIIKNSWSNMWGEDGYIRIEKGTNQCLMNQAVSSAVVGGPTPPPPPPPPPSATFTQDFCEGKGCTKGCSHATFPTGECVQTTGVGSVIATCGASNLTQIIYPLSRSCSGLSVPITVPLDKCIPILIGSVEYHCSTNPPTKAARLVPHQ

[5] = target: Cruzipain (Trypanosoma cruzi) (UniProt P25779); assay: Inhibition of Trypanosoma cruzi cruzain at 20 uM relative to control
Sequence of Cruzipain (Trypanosoma cruzi) (P25779 123-467 limits assumed): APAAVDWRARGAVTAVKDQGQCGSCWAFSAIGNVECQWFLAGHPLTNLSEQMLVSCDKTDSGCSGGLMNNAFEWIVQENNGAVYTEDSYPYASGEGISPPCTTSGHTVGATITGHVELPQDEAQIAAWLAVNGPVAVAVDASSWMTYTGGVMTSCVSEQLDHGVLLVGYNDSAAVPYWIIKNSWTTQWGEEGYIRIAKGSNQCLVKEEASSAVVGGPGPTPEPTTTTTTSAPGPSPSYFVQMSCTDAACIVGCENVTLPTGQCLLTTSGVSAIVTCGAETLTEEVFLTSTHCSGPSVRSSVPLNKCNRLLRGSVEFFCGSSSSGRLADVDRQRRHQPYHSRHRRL

[6] = target: T3, Cathepsin B (Homo sapiens, UniProt P07858); assay: Inhibition of human cathepsin B at 20 uM using Cbz-Phe-Arg-AMC as substrate relative to control
[7] = target: T4, Falcipain 2 (Plasmodium falciparum, UniProt Q9N6S8); assay: Inhibition of Plasmodium falciparum falcipain-2 using Cbz-Phe-Arg-AMC as substrate measured for 15 mins by spectrofluorimetric method
T4 sequence (Q9N6S8 whole entry): T2 sequence (whole entry)

[8] = target: T1, Procathepsin L; assay: Inhibition of human cathepsin L at 20 uM using Cbz-Phe-Arg-AMC as substrate relative to control
Target sequence in this assay (P07711 114-333 limits assumed): as the sequence (P07711 114-333 limits assumed) above

[9] = target: Rhodesain (Trypanosoma brucei rhodesiense) (UniProt Q95PM0); assay: Inhibition of Trypanosoma brucei rhodesiense rhodesain at 20 uM using Cbz-Phe-Arg-AMC as substrate measured for 30 mins by fluorescence method relative to control
[10] = target: T2, Falcipain 2 (Plasmodium falciparum); assay: Inhibition of Plasmodium falciparum falcipain-2 assessed as second-order rate constant using Cbz-Phe-Arg-AMC as substrate measured for 15 mins by spectrofluorimetric method
[11] = target: T3, Cathepsin B; assay: Inhibition of human cathepsin B assessed as second order rate constant using Cbz-Phe-Arg-AMC as substrate
[12] = target: Cruzipain (Trypanosoma cruzi) (UniProt P25779); assay: Inhibition of Trypanosoma cruzi cruzain assessed as second-order rate constant
[13] = target: T3, Cathepsin B; assay: Inhibition of human cathepsin B using Cbz-Phe-Arg-AMC as substrate
[14] = target: T1, Procathepsin L; assay: Inhibition of human cathepsin L using Cbz-Phe-Arg-AMC as substrate
Target sequence in this assay (P07711 whole entry): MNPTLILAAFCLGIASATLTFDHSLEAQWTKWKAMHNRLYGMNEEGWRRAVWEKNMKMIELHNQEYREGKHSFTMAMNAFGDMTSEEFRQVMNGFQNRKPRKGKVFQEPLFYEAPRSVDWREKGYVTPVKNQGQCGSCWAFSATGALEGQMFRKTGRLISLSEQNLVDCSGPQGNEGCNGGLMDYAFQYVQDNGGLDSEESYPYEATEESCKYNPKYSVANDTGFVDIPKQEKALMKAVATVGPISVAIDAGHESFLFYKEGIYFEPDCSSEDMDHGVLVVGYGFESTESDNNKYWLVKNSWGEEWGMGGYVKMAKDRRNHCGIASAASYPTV

[15] = target: Cruzipain (Trypanosoma cruzi, UniProt P25779); assay: Inhibition of Trypanosoma cruzi cruzain
Sequence of Cruzipain (P25779 whole entry): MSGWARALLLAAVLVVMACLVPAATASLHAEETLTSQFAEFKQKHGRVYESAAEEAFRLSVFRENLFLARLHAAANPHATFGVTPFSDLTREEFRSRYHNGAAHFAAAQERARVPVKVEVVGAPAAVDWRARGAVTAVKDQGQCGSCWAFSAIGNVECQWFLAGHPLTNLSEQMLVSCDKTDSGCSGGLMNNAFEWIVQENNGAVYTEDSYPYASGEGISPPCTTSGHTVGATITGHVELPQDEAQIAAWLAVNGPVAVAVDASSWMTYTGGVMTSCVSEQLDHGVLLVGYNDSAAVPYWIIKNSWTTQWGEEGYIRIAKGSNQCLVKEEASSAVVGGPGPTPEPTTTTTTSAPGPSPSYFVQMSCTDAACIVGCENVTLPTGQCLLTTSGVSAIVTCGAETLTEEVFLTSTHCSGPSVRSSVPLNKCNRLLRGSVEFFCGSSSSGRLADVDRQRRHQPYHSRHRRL

[16] = system: Trypanosoma cruzi; assay: Antitrypanosomal activity against Trypanosoma cruzi Tulahuen strain C2C4 amastigote forms harboring LacZ infected in rat L6 cells after 96 hrs by CPRG/Nonidet reagent based photometric method; format: functional, organism-based; conditions: Tulahuen strain C2C4, L6, 96 h
[17] = system: Plasmodium falciparum; assay: Antimalarial activity against erythrocytic stage of synchronized Plasmodium falciparum Dd2 after 48 hrs by Picogreen dye based fluorescence assay; format: functional, organism-based; conditions: Dd2, 48 h
[18] = Cytotoxicity against human HepG2 cells assessed as cell viability at 1 uM measured after 24 hrs by spectrophotometric method relative to control; format: cell-based; conditions: read-out: Activity
[19] = system: Leishmania donovani; assay: Antileishmanial activity against Leishmania donovani MHOM/ET/67/L82 axenic amastigotes after 70 hrs by alamar blue staining based fluorescence assay; format: functional, organism-based; conditions: MHOM/ET/67/L82, 70 h
[20] = system: Trypanosoma brucei rhodesiense; assay: Antiprotozoal activity against patient derived Trypanosoma brucei rhodesiense STIB 900 bloodstream form after 70 hrs by Alamar Blue assay; format: functional, organism-based; conditions: STIB 900, 70 h
[21] = target: Rhodesain (Trypanosoma brucei rhodesiense) (UniProt Q95PM0); assay: Irreversible inhibition of Trypanosoma brucei rhodesiense rhodesain using Cbz-Phe-Arg-AMC as substrate pretreated for 30 mins followed by substrate addition and measured for 30 mins by dialysis method
[22] = target: Cruzipain (Trypanosoma cruzi) (UniProt P25779); assay: Irreversible inhibition of Trypanosoma cruzi cruzain pretreated for 30 mins followed by substrate addition and measured for 30 mins by dialysis method
[23] = target: T2, Falcipain 2 (Plasmodium falciparum); assay: Irreversible inhibition of Plasmodium falciparum falcipain-2 using Cbz-Phe-Arg-AMC as substrate pretreated for 30 mins followed by substrate addition and measured for 30 mins by dialysis method

Sequence of Rhodesain (Q95PM0 whole entry): as the sequence (Q95PM0 1-450) above

Row | SMILES | IC50 [1] | K [2] | inhibition [3] | K [4] | inhibition [5] | inhibition [6] | inhibition [8] | inhibition [9] | K [11] | K [12] | IC50 [13] | IC50 [14] | IC50 [15] | further results
1 | CCOC(=O)/C=C/[C@@H](O)[C@H](C)NC(=O)[C@H](Cc1ccccc1)NC(=O)OCc1ccccc1 | 15.1 µM | 828 M⁻¹ s⁻¹ | 41% | 11000 M⁻¹ s⁻¹ | 30% | 26% | 80% | 63% | – | – | – | – | – | IC50 [7]: 26.8 µM; K [10]: 2700 M⁻¹ s⁻¹
2 | CCOC(=O)/C=C/[C@@H](O)[C@H](CCc1ccccc1)NC(=O)[C@H](Cc1ccccc1)NC(=O)N1CCOCC1 | – | 1900 M⁻¹ s⁻¹ | – | 36700 M⁻¹ s⁻¹ | 95% | 100% | 98% | 99% | 4190 to 4200 M⁻¹ s⁻¹ | 3600 M⁻¹ s⁻¹ | – | – | – | –
3 | CCOC(=O)/C=C/C(=O)[C@@H](CC(C)C)NC(=O)[C@H](Cc1ccccc1)NC(=O)OCc1ccccc1 | 0.03 µM | 704000 M⁻¹ s⁻¹ | – | 1.53e+06 M⁻¹ s⁻¹ | 100% | 100% | 100% | 100% | 117000 M⁻¹ s⁻¹ | 312000 M⁻¹ s⁻¹ | 0.06 µM | 0.01 µM | 0.02 µM | –
4 | CCOC(=O)/C=C/C(=O)[C@H](CCc1ccccc1)NC(=O)[C@H](CC(C)C)NC(=O)OCc1ccccc1 | – | 29900 M⁻¹ s⁻¹ | 98% | 116000 M⁻¹ s⁻¹ | 100% | 100% | 100% | 98% | 42400 M⁻¹ s⁻¹ | 60800 M⁻¹ s⁻¹ | – | 0.26 µM | 0.08 µM | IC50 [16]: 7.14 µM; IC50 [17]: 1.61 µM; viability at 24 h, 1 µM [18]: 100%; IC50 [7]: 0.58 µM; IC50 [19]: 0.09 µM; IC50 [20]: 2.32 µM; K [10]: 6000 M⁻¹ s⁻¹
5 | O=C(/C=C/[C@@H](O)[C@H](CCc1ccccc1)NC(=O)[C@H](Cc1ccccc1)NC(=O)OCc1ccccc1)NCc1ccccc1 | – | – | – | – | 41% | 9% | 17% | 1% | – | – | – | – | – | –
6 | CCOC(=O)/C=C/[C@H](O)[C@H](CCc1ccccc1)C(=O)N[C@@H](Cc1ccccc1)C(=O)OC | – | – | 9% | – | – | 0% | 0% | 4% | – | – | – | – | – | –
7 | O=C(O)/C=C/[C@@H](O)[C@H](CCc1ccccc1)NC(=O)[C@H](Cc1ccccc1)NC(=O)OCc1ccccc1 | – | 882 M⁻¹ s⁻¹ | 24% | – | 12% | 15% | 47% | 24% | – | – | – | – | – | IC50 [7]: 75 µM; K [10]: 29 M⁻¹ s⁻¹
8 | O=C(Cn1ccnc1[N+](=O)[O-])NCc1ccccc1 [BENZNIDAZOLE] | – | – | – | – | – | – | – | – | – | – | – | – | – | IC50 [16]: 0.5 mg/L
9 | CCOC(=O)/C=C/[C@H](O)[C@H](CCc1ccccc1)C(=O)N[C@@H](CC(C)C)C(=O)OCc1ccccc1 | – | – | 5% | – | – | 17% | 0% | 2% | – | – | – | – | – | –
10 | CCOC(=O)/C=C/[C@H](O)[C@H](CCc1ccccc1)C(=O)N[C@@H](Cc1ccccc1)C(=O)OCc1ccccc1 | – | – | 5% | – | – | 25% | 0% | 6% | – | – | – | – | – | –
11 | CCOC(=O)/C=C/C(=O)[C@H](CC(C)C)NC(=O)[C@H](Cc1ccccc1)NC(=O)OCc1ccccc1 | 0.02 µM | 759000 M⁻¹ s⁻¹ | – | 1.61e+06 M⁻¹ s⁻¹ | 100% | 100% | 100% | 100% | 138000 M⁻¹ s⁻¹ | 517000 M⁻¹ s⁻¹ | 0.05 µM | 0.01 µM | 0.02 µM | IC50 [17]: 14.9 µM; viability at 24 h, 1 µM [18]: 100%
12 | CCOC(=O)/C=C/C(=O)[C@@H](CCc1ccccc1)NC(=O)[C@H](Cc1ccccc1)NC(=O)N1CCOCC1 | 0.15 µM | – | – | 62400 M⁻¹ s⁻¹ | 99% | 99% | 100% | 99% | 108000 M⁻¹ s⁻¹ | 22000 M⁻¹ s⁻¹ | 0.08 µM | > 2 µM | 0.33 µM | inhibition [21]: Active; inhibition [22]: Active; inhibition [23]: Active
13 | CCOC(=O)/C=C/[C@@H](O)[C@H](CCc1ccccc1)NC(=O)[C@H](CC(C)C)NC(=O)OCc1ccccc1 | – | – | 11% | – | 9% | 10% | 14% | 0% | – | – | – | – | – | –
14 | CCOC(=O)/C=C/C(=O)[C@H](CCc1ccccc1)NC(=O)[C@H](Cc1ccccc1)NC(=O)N1CCOCC1 | 0.15 µM | 28500 M⁻¹ s⁻¹ | – | 142000 M⁻¹ s⁻¹ | 100% | 100% | 100% | 100% | 97000 M⁻¹ s⁻¹ | 23400 M⁻¹ s⁻¹ | 0.07 µM | 0.18 µM | 0.3 µM | inhibition [21]: Active; IC50 [17]: 6.81 µM; inhibition [22]: Active; viability at 24 h, 1 µM [18]: 100%; inhibition [23]: Active
15 | CCOC(=O)/C=C/[C@@H](O)[C@H](CCc1ccccc1)NC(=O)[C@H](Cc1ccccc1)NC(=O)OCc1ccccc1 | – | 1100 M⁻¹ s⁻¹ | 41% | 3200 to 3210 M⁻¹ s⁻¹ | 18% | 36% | 57% | 63% | 772 to 800 M⁻¹ s⁻¹ | – | – | – | – | IC50 [7]: 34.4 µM; K [10]: 557 M⁻¹ s⁻¹
16 | CCOC(=O)/C=C/C(=O)[C@H](C)NC(=O)[C@H](Cc1ccccc1)NC(=O)OCc1ccccc1 | – | 197000 M⁻¹ s⁻¹ | 99% | 6500 M⁻¹ s⁻¹ | 100% | 100% | 100% | 100% | 47000 M⁻¹ s⁻¹ | 140000 M⁻¹ s⁻¹ | – | 0.08 µM | 0.3 µM | IC50 [7]: 0.19 µM; K [10]: 28300 M⁻¹ s⁻¹
17 | CCOC(=O)/C=C/C(=O)[C@H](C)NC(=O)[C@H](CC(C)C)NC(=O)OCc1ccccc1 | – | 9800 M⁻¹ s⁻¹ | 98% | 14200 M⁻¹ s⁻¹ | 99% | 100% | 99% | 99% | 85500 M⁻¹ s⁻¹ | 14400 M⁻¹ s⁻¹ | – | 0.5 µM | – | IC50 [7]: 1.2 µM; K [10]: 12000 M⁻¹ s⁻¹
18 | CCOC(=O)/C=C/C(=O)[C@H](CC(C)C)NC(=O)[C@H](CC(C)C)NC(=O)N1CCOCC1 | 0.11 µM | 52200 M⁻¹ s⁻¹ | – | 324000 M⁻¹ s⁻¹ | 100% | 100% | 100% | 100% | 49500 M⁻¹ s⁻¹ | 10600 M⁻¹ s⁻¹ | 0.09 µM | 0.09 µM | 0.2 µM | –
19 | CCOC(=O)/C=C/C(=O)[C@H](CCc1ccccc1)NC(=O)[C@H](CC(C)C)NC(=O)N1CCOCC1 | 0.14 µM | 19600 M⁻¹ s⁻¹ | – | 120000 M⁻¹ s⁻¹ | – | 100% | 100% | 100% | 31400 M⁻¹ s⁻¹ | 5600 M⁻¹ s⁻¹ | 0.14 µM | 0.21 µM | 0.34 µM | IC50 [17]: 17.7 µM; viability at 24 h, 1 µM [18]: 100%
20 | CCOC(=O)/C=C/[C@H](O)[C@H](CCc1ccccc1)NC(=O)[C@H](Cc1ccccc1)NC(=O)OCc1ccccc1 | – | 77 M⁻¹ s⁻¹ | 22% | – | 37% | 35% | 58% | 32% | 14 M⁻¹ s⁻¹ | – | 52.6 µM | 47 µM | – | –
21 | CCOC(=O)/C=C/[C@H](O)[C@H](CCc1ccccc1)C(=O)N[C@@H](CC(C)C)C(=O)OC | – | – | 3% | – | – | 0% | 0% | 1% | – | – | – | – | – | –
